Experimental data: paper PMC7589233 (The Journal of Physiology, 2020)

Key:
[1] = target: T1, TRPV1 (Homo sapiens, UniProt Q8NER1); type: cell-based
[2] = target: T1, TRPV1; experiment: whole-cell patch clamp, agonist current at […]; type: cell-based

T1 sequence (Q8NER1 whole entry): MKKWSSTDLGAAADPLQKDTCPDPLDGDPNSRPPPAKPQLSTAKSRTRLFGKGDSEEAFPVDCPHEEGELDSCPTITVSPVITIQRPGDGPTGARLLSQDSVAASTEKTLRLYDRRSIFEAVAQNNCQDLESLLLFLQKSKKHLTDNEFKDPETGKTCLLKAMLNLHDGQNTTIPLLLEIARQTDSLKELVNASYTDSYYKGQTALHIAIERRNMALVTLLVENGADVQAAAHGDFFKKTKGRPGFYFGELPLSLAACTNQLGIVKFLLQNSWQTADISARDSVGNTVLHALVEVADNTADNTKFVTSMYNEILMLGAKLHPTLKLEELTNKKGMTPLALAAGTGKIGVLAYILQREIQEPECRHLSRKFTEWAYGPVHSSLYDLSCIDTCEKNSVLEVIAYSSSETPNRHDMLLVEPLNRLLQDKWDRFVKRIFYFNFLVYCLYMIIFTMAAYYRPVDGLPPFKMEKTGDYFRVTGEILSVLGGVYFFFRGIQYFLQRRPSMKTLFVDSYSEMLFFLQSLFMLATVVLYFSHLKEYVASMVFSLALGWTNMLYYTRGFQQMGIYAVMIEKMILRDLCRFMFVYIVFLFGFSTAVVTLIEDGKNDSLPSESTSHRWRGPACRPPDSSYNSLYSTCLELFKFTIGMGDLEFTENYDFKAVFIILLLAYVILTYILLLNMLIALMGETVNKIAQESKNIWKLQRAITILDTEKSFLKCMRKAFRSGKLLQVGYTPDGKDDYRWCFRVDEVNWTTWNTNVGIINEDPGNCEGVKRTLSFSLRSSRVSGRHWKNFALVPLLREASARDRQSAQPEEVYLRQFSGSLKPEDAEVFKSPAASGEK

| SMILES | IC50 [1] | whole-cell patch clamp, agonist current at 1 μM [2] |
| --- | --- | --- |
| C=C1CC[C@H](O)C/C1=C/C=C1\CCC[C@]2(C)[C@@H]([C@H](C)CCCC(C)(C)O)CC[C@@H]12 [25OHD, 25-Hydroxyvitamin D] | 34.3 ± 0.2 nM |  |
| CCCCCCCC/C=C\CCCCCCCC(=O)NCCc1ccc(O)c(O)c1 [OLDA, N-oleoyldopamine] |  | OLDA elicited whole‐cell currents that displayed similar kinetics to that observed with capsaicin |
